These are literature values, as cited in article PMC12500691 (Frontiers in Cellular and Infection Microbiology, 2025).

The subject of the data set is NETosis. Conditions: cited from earlier work.

As to `CC[C@H](C)[C@H](NC(=O)[C@H](CCCCN)NC(=O)[C@H](CCC(=O)O)NC(=O)[C@H](CCCCN)NC(=O)[C@H](CO)NC(=O)[C@H](CCCCN)NC(=O)[C@H](CCCNC(=N)N)NC(=O)[C@H](Cc1ccccc1)NC(=O)[C@H](Cc1ccccc1)NC(=O)[C@H](CC(=O)O)NC(=O)CNC(=O)[C@H](CC(C)C)NC(=O)[C@@H](N)CC(C)C)C(=O)NCC(=O)N[C@@H](CCCCN)C(=O)N[C@@H](CCC(=O)O)C(=O)N[C@@H](Cc1ccccc1)C(=O)N[C@@H](CCCCN)C(=O)N[C@@H](CCCNC(=N)N)C(=O)N[C@H](C(=O)N[C@H](C(=O)N[C@@H](CCC(N)=O)C(=O)N[C@@H](CCCNC(=N)N)C(=O)N[C@H](C(=O)N[C@@H](CCCCN)C(=O)N[C@@H](CC(=O)O)C(=O)N[C@@H](Cc1ccccc1)C(=O)N[C@@H](CC(C)C)C(=O)N[C@@H](CCCNC(=N)N)C(=O)N[C@@H](CC(N)=O)C(=O)N[C@@H](CC(C)C)C(=O)N[C@H](C(=O)N1CCC[C@H]1C(=O)N[C@@H](CCCNC(=N)N)C(=O)N[C@H](C(=O)N[C@@H](CCC(=O)O)C(=O)N[C@@H](CO)C(=O)O)[C@@H](C)O)C(C)C)[C@@H](C)CC)C(C)C)[C@@H](C)CC` [LL-37], the “effect on NETosis” value is reported as “promote NETosis”.
